Structures can show the parent of a compound that is named as a salt. Each block holds one molecule with its values, some of them ahead of it.
How the values were obtained:
[1] = hygroscopicity / Dynamic Vapor Sorption (DVS) of hydrochloride salt crystal forms; type: physicochemical; conditions: for water uptake: at RH 50%; for Hygroscopicity: hydrochloride salt of Example 4, result in words; for water absorbed eventually: RH of 90%
Procedure: Differential scanning calorimetry data were collected for each solid form achieved using a DSC (TA instruments, model Q1000) under the following parameters: 50 mL/min purge gas (N2); scan range 40 to 200° C., scan rate 10° C./min. Thermogravimetric analysis data were collected using a TGA instruments (Mettler Toledo, model TGA/SDTA 851e) under the following parameters: 40 ml/min purge gas (N2); scan range 30 to 250° C., scan rate 10° C./min. X-ray data were acquired using an X-ray powder diffractometer (Bruker-axs, model D8 advance) having the following parameters: voltage 40 kV, current 40.0 mA, scan range (2) 5 to 30°, scan step size 0.01°, total scan time 33 minutes, VANTEC detector, and antiscattering slit 1 mm. FIGS. 1-7 show characterization data for hydrochloride salt forms.
Dynamic Vapor Sorption (DVS) was done at 26° C.

[2] = solubility in water of hydrochloride salt crystal forms; type: physicochemical; conditions: result in words
rat-alpha 7-nAChR = molecular target: T1, rat-alpha 7-nAChR (Rattus norvegicus, UniProt Q05941); assay: functional FLIPR assay, GH4C1 cells stably expressing alpha7 nAChR (intracellular calcium); type: cell-based; conditions: alpha7 nAChR stably expressed in GH4C1 cells; agonist concentration range 0.001 to 30 microM
T1 construct: expressed in transfected cells
T1 sequence (Q05941 23-502): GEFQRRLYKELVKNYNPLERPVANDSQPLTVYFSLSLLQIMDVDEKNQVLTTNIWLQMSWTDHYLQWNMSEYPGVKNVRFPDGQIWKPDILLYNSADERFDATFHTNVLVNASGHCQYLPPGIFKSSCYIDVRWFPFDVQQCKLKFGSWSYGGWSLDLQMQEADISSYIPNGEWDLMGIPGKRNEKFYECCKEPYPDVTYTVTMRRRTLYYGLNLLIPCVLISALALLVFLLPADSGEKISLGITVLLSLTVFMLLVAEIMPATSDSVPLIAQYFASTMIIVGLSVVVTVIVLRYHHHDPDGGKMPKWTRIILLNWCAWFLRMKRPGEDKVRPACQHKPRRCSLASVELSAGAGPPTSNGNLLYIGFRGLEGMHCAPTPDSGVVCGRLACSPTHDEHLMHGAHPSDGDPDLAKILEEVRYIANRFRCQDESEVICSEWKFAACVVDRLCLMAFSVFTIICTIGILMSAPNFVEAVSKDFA

melting point: 132 to 133 °C
Structure (SMILES): COc1ccc(-c2cc(NC(=O)CCCCN3CCCN(C(C)=O)CC3)[nH]n2)cc1 (as salt: hydrochloride) [Example 4, 5-(4-Acetyl-[1,4]diazepan-1-yl)-pentanoic acid [5-(4-methoxy-phenyl)-2H-pyrazol-3-yl]-amide]

melting point: 185 °C
Structure (SMILES): COc1ccc(-c2cc(NC(=O)CCCCN3CCCN(C(C)=O)CC3)[nH]n2)cc1 (as salt: hydrochloric acid salt) [5-(4-Acetyl-[1,4]diazepan-1-yl)-pentanoic acid [5-(4-methoxy-phenyl)-2H-pyrazol-3-yl]-amide]

water uptake [1]: (10% water
Hygroscopicity [1]: Hygroscopic
Structure (SMILES): COc1ccc(-c2cc(NC(=O)CCCCN3CCCN(C(C)=O)CC3)[nH]n2)cc1 [Crystal Form III, 5-(4-Acetyl-[1,4]diazepan-1-yl)-pentanoic acid [5-(4-methoxy-phenyl)-2H-pyrazol-3-yl]-amide]

relative humidity at which the form picks up moisture ([1]; DVS at 26° C.): about 20%
water held at low RH ([1]; RH 0%, DVS at 26° C.): 2%
water absorbed eventually ([1]; DVS at 26° C.): up to 7%
Hygroscopicity [1]: non-hygroscopic
solubility in water [2]: considerably soluble
Structure (SMILES): COc1ccc(-c2cc(NC(=O)CCCCN3CCCN(C(C)=O)CC3)[nH]n2)cc1 [Form II, 5-(4-acetyl-1,4-diazepan-1-yl)-N-(5-(4-methoxyphenyl)-1H-pyrazol-3-yl)pentanamide]

Structure (SMILES): C[N+]1(C)CCN(c2ccccc2)CC1 [DMPP]
EC50 (rat-alpha 7-nAChR): 0.98 ± 0.47 µM

relative humidity at which the form picks up moisture ([1]; DVS at 26° C.): about 50%
water absorbed eventually ([1]; DVS at 26° C.): up to 2%
moisture gain ([1]; at 70-100% RH, lost without significant hysteresis on decreasing RH): at least 12%
moisture gain ([1]; equilibrated at RH less than or equal to 70%): about 0.5%
Hygroscopicity [1]: relatively non-hygroscopic
solubility in water [2]: considerably soluble
Structure (SMILES): COc1ccc(-c2cc(NC(=O)CCCCN3CCCN(C(C)=O)CC3)[nH]n2)cc1 [Form I, 5-(4-acetyl-1,4-diazepan-1-yl)-N-(5-(4-methoxyphenyl)-1H-pyrazol-3-yl)pentanamide]

Hygroscopicity [1]: extreme hygroscopicity
Structure (SMILES): COc1ccc(-c2cc(NC(=O)CCCCN3CCCN(C(C)=O)CC3)n[nH]2)cc1.Cl [5-(4-acetyl-[1,4]diazepan-1-yl)-pentanoic acid [5-(4-methoxy-phenyl)-1H-pyrazol-3-yl]-amide hydrochloride]

water uptake [1]: (7% at RH
Hygroscopicity [1]: Hygroscopic
Structure (SMILES): COc1ccc(-c2cc(NC(=O)CCCCN3CCCN(C(C)=O)CC3)[nH]n2)cc1 [Crystal Form V, 5-(4-Acetyl-[1,4]diazepan-1-yl)-pentanoic acid [5-(4-methoxy-phenyl)-2H-pyrazol-3-yl]-amide]

Source: patent US20100130474A1 (WYETH, priority 2008, published 2010)
